Here are results for twelve compounds from patent US11427548B2 (Arvinas Operations, Inc., priority 2015, dated 2022).

Where two headings read alike, the source gives them in different places. Where only a bound is given, the exact number is not on record here.

The target of this assay is T1, Androgen Receptor (Homo sapiens, UniProt P10275).
T1 construct: endogenous in cells; host or cells: VCaP cells
T1 sequence (P10275 1-920): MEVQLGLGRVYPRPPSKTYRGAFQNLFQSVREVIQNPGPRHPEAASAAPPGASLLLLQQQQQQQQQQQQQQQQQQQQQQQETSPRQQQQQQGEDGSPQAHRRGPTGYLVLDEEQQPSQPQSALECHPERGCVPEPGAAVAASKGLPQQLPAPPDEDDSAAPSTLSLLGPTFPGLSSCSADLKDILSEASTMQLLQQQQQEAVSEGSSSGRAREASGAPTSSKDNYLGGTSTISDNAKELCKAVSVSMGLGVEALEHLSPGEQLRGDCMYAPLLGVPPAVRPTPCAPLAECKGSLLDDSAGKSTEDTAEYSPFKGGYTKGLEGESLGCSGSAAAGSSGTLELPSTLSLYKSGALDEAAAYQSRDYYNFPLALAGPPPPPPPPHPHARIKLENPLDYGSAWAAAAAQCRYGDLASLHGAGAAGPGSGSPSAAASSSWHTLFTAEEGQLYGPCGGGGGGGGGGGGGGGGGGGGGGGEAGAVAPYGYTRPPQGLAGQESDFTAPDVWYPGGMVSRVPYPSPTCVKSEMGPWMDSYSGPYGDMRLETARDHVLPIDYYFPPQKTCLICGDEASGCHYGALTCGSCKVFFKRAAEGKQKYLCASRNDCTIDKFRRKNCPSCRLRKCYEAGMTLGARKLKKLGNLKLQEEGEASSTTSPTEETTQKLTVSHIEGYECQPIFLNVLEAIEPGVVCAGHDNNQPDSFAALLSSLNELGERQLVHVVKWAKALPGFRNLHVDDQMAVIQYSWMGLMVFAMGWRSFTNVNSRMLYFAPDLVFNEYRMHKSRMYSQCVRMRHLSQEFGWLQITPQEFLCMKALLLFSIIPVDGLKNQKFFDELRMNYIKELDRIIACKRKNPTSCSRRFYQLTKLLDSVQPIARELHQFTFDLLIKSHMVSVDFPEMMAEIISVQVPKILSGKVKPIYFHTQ
Description: Androgen Receptor ELISA assay (PathScan AR ELISA) in VCaP cells: AR degradation, Dmax and DC50. The format is cell-based. The essentials:
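VCaP cells in phenol red-free RPMI with 5% charcoal-stripped FBS were grown at least 3 days, then given compound as 7 half-log doses in 0.1% DMSO with 0.1 nM R1881 for 24 h. Lysates went into a sandwich AR ELISA with TMB read at 450 nm.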
On the technique in general: An ELISA detects its analyte on a solid surface through an enzyme-linked reagent.

The mark [1] stands for this setting: VCaP cells; Table 36; read-out: VCaP DC50.
[2] abbreviates: VCaP, VCaP cells; Table 36; read-out: VCaP Dmax (%).
The mark [3] stands for this setting: VCaP, read-out: VCaP Dmax (%), VCaP cells; Table 36.
[4] abbreviates: read-out: VCaP DC50; VCaP cells; Table 36.

A word on the DC50: it is the midpoint of the concentration-degradation curve. For orientation: Dmax means the greatest extent of degradation seen. For `Cc1ncsc1-c1ccc([C@H](C)NC(=O)[C@@H]2C[C@@H](O)CN2C(=O)[C@@H](NC(=O)CO[C@@H](C)CN2CCN(c3ccc(C(=O)N[C@H]4C(C)(C)[C@H](Oc5ccc(C#N)c(Cl)c5)C4(C)C)cc3)CC2)C(C)(C)C)cc1` [Example 639, (1S,4R)-1-((S)-2-(2-(((S)-1-(4-(4-(((1r,3S)-3-(3-chloro-4-cyanophenoxy)-2,2,4,4-tetramethylcyclobutyl)carbamoyl)phenyl)piper-azin-1-yl)propan-2-yl)oxy)acetamido)-3,3-dimethylbutanoyl)-4-hydroxy-N-((S)-1-(4-(4-methylthiazol-5-yl)phenyl)ethyl)pyrrolidine-2-carboxamide], under setting [1], the DC50 was under 0.05 µM. For the same compound, under setting [2], the Dmax was over 71%.
With `Cc1ncsc1-c1ccc(CNC(=O)[C@@H]2C[C@@H](O)CN2C(=O)[C@@H](NC(=O)CN2CCC(OCCOc3ccc(C(=O)N[C@H]4C(C)(C)[C@H](Oc5ccc(C#N)c(C(F)(F)F)c5)C4(C)C)cc3)CC2)C(C)(C)C)cc1` [Example 640, (2S,4R)-1-((S)-2-(2-(4-(2-(4-(((1r,3r)-3-(4-cyano-3-(trifluorometh-yl)phenoxy)-2,2,4,4-tetramethylcyclobutyl)carbamoyl)phenoxy)eth-oxy)piperidin-1-yl)acetamido)-3,3-dimethylbutanoyl)-4-hydroxy-N-(4-(4-methylthiazol-5-yl)benzyl)pyrrolidine-2-carboxamide], the 50% degradation concentration (DC50) under setting [1] is under 0.05 µM. In addition, the Dmax under setting [3] is over 71%.
For `Cc1ncsc1-c1ccc([C@H](C)NC(=O)[C@@H]2C[C@@H](O)CN2C(=O)[C@@H](NC(=O)COCCCCOc2ccc(C(=O)N[C@H]3C(C)(C)[C@H](Oc4ccc(C#N)c(C(F)(F)F)c4)C3(C)C)cc2)C(C)(C)C)cc1` [Example 641, (2S,4R)-1-((S)-2-(2-(4-(4-(((1r,3r)-3-(4-cyano-3-(trifluorometh-yl)phenoxy)-2,2,4,4-tetramethylcyclobutyl)carbamoyl)phenoxy)butoxy)acetamido)-3,3-dimethylbutanoyl)-4-hydroxy-N-((S)-1-(4-(4-methylthiazol-5-yl)phenyl)ethyl)pyrrolidine-2-carboxamide], in that order: under 0.05 µM and over 71%.
In the case of `Cc1ncsc1-c1ccc([C@H](C)NC(=O)C2C[C@@H](O)CN2C(=O)[C@@H](NC(=O)COCCC2(CCNc3ccc(C(=O)N[C@H]4C(C)(C)[C@H](Oc5ccc(C#N)c(Cl)c5)C4(C)C)cc3)COC2)C(C)(C)C)cc1` (stereo partly drawn) [Example 642], the DC50 under setting [1] was under 0.05 µM. Under setting [2], the Dmax is over 71%.
`Cc1ncsc1-c1ccc([C@H](C)NC(=O)[C@@H]2C[C@@H](O)CN2C(=O)[C@@H](NC(=O)CN2CCOCCN(CCOc3ccc(N4C(=S)N(c5ccc(C#N)c(C(F)(F)F)c5)C(=O)C4(C)C)cc3)CCOCC2)C(C)(C)C)cc1` [Example 643, (2S,4R)-1-((S)-2-(2-(10-(2-(4-(3-(4-cyano-3-(trifluoromethyl)phenyl)-5,5-dimethyl-4-oxo-2-thioxoimidazolidin-1-yl)phenoxy)ethyl)-1,7-dioxa-4,10-diazacyclododecan-4-yl)acetamido)-3,3-dimethylbutanoyl)-4-hydroxy-N-((S)-1-(4-(4-methylthiazol-5-yl)phenyl)ethyl)pyrrolidine-2-carboxamide]: the greatest degradation seen (Dmax) (VCaP, read-out: VCaP Dmax (%)) was under 25%. For the same compound, the DC50 under setting [4] is over 0.501 µM.
In the case of `Cc1ncsc1-c1ccc([C@H](C)NC(=O)[C@@H]2C[C@@H](O)CN2C(=O)[C@@H](NC(=O)Cc2ccnc(N3CCN(c4ccc(C(=O)N[C@H]5C(C)(C)[C@H](Oc6ccc(C#N)c(Cl)c6)C5(C)C)cn4)CC3)c2)C(C)(C)C)cc1` [Example 644, N-((1r,3r)-3-(3-chloro-4-cyanophenoxy)-2,2,4,4-tetramethylcyclobutyl)-6-(4-(4-(2-(((S)-1-((2S,4R)-4-hydroxy-2-(((S)-1-(4-(4-methylthiazol-5-yl)phenyl)ethyl)carbam-oyl)pyrrolidin-1-yl)-3,3-dimethyl-1-oxobutan-2-yl)amino)-2-oxoethyl)pyridin-2-yl)piperazin-1-yl)nicotinamide], the DC50 under setting [1] was under 0.05 µM. Under setting [2], the greatest degradation seen (Dmax) is over 71%.
As for `Cc1ncsc1-c1ccc(CNC(=O)[C@@H]2C[C@@H](O)CN2C(=O)[C@@H](NC(=O)CN2CCN(CCOc3ccc(C(=O)N[C@H]4C(C)(C)[C@H](Oc5ccc(C#N)c(Cl)c5)C4(C)C)cc3)CC2)C(C)(C)C)cc1` [Example 645, (2S,4R)-1-((S)-2-(2-(4-(2-(4-(((1r,3r)-3-(3-chloro-4-cyanophenoxy)-2,2,4,4-tetramethylcyclobutyl)carbamoyl)phenoxy)eth-yl)piperazin-1-yl)acetamido)-3,3-dimethylbutanoyl)-4-hydroxy-N-(4-(4-methylthiazol-5-yl)benzyl)pyrrolidine-2-carboxamide], under setting [1], the DC50 is under 0.05 µM. Besides, the Dmax under setting [2] lay within 51 to 70%.
Take `Cc1ncsc1-c1ccc(CNC(=O)[C@@H]2C[C@@H](O)CN2C(=O)[C@@H](NC(=O)CN2CCN(CCOc3ccc(C(=O)N[C@H]4C(C)(C)[C@H](Oc5ccc(C#N)c(C(F)(F)F)c5)C4(C)C)cc3)CC2)C(C)(C)C)cc1` [Example 646, (2S,4R)-1-((S)-2-(2-(4-(2-(4-(((1r,3r)-3-(4-cyano-3-(trifluoromethyl)phenoxy)-2,2,4,4-tetramethylcyclobutyl)carbamoyl)phenoxy)eth-yl)piperazin-1-yl)actamido)-3,3-dimethylbutanoyl)-4-hydroxy-N-(4-(4-methylthiazol-5-yl)benzyl)pyrrolidine-2-carboxamide]: the DC50 under setting [1] was under 0.05 µM. Moreover, the greatest degradation seen (Dmax) under setting [2] lay within 26 to 50%.
With `Cc1ncsc1-c1ccc([C@H](C)NC(=O)[C@@H]2C[C@@H](O)CN2C(=O)[C@@H](C(C)C)n2cc(OCCCOCCCn3cnc(-c4ccc(N5C(=S)N(c6ccc(C#N)c(C(F)(F)F)c6)C(=O)C5(C)C)cc4)c3)cn2)cc1` [Example 647, (2S,4R)-1-((R)-2-(4-(3-(3-(4-(4-(3-(4-cyano-3-(trifluoromethyl)phenyl)-5,5-dimethyl-4-oxo-2-thhioxoimidazolidin-1-yl)phenyl)-1H-imidazol-1-yl)propoxy)propoxy)-1H-pyrazol-1-yl)-3-methylbutanoyl)-4-hydroxy-N-((S)-1-(4-(4-methylthiazol-5-yl)phenyl)ethyl)pyrrolidine-2-carboxamide], the Dmax (VCaP, read-out: VCaP Dmax (%)) was under 25%. The DC50 under setting [4] was over 0.501 µM.
Consider `Cc1ncsc1-c1ccc([C@H](C)NC(=O)[C@@H]2C[C@@H](O)CN2C(=O)[C@H](C(C)C)n2cc(OCCCOCCCn3cnc(-c4ccc(N5C(=S)N(c6ccc(C#N)c(C(F)(F)F)c6)C(=O)C5(C)C)cc4)c3)cn2)cc1` [Example 648, (2S,4R)-1-((S)-2-(4-(3-(3-(4-(4-(3-(4-cyano-3-(trifluoromethyl)phenyl)-5,5-dimethyl-4-oxo-2-thioxoimidazolidin-1-yl)phenyl)-1H-imidazol-1-yl)propoxy)propoxy)-1H-pyrazol-1-yl)-3-methylbutanoyl)-4-hydroxy-N-((S)-1-(4-(4-methylthiazol-5-yl)phenyl)ethyl)pyrrolidine-2-carboxamide], for which the greatest degradation seen (Dmax) (VCaP, read-out: VCaP Dmax (%)) is under 25%. Under setting [4], the DC50 is over 0.501 µM.
For the compound `CC[C@H](NC(=O)[C@@H]1C[C@@H](O)CN1C(=O)[C@@H](NC(=O)COCCN1CCN(c2ccc(C(=O)N[C@H]3C(C)(C)[C@H](Oc4ccc(C#N)c(Cl)c4)C3(C)C)cn2)CC1)C(C)(C)C)c1ccc(-c2scnc2C)cc1` [Example 649, N-((1r,3r)-3-(3-chloro-4-cyanophenoxy)-2,2,4,4-tetramethylcyclobutyl)-6-(4-(2-(2-(((S)-1-((2S,4R)-4-hydroxy-2-(((S)-1-(4-(4-methylthiazol-5-yl)phenyl)propyl)carbam-moyl)pyrrolidin-1-yl)-3,3-dimethyl-1-oxobutan-2-yl)amino)-2-oxoethoxy)ethyl)pipera-zin-1-yl)nicotinamide], the DC50 under setting [1] was under 0.05 µM. The Dmax under setting [2] is over 71%.
With `Cc1ncsc1-c1ccc([C@H](C)NC(=O)[C@@H]2C[C@@H](O)CN2C(=O)C(C(C)C)n2cnc(CCCCOCCCCCOc3ccc(N4C(=S)N(c5ccc(C#N)c(C(F)(F)F)c5)C(=O)C4(C)C)cc3)c2)cc1` (stereo partly drawn) [Example 650, 1-(2-(4-(4-((5-(4-(3-(4-cyano-3-(trifluoromethyl)phenyl)-5,5-dimethyl-4-oxo-2-thioxoimidazolidin-1-yl)phenoxy)pentyl)oxy)butyl)-1H-imidazol-1-yl)-3-methylbutanoyl)-4-hydroxy-N-(1-(4-(4-methylthiazol-5-yl)phenyl)ethyl)pyrroli-dine-2-carboxamide], the Dmax (VCaP, read-out: VCaP Dmax (%)) is under 25%. In addition, under setting [4], the DC50 was over 0.501 µM.
